Experiment [1] addresses T1, Delta-type opioid receptor (Homo sapiens, UniProt P41143). The experiment in a line: SAR Analysis of Antagonists of the DOR Receptor using an Image-Based Assay - Set 3. [Related pubchem assays (depositor defined):AID1777, AID1785]. The format is functional.
Experiment [2] has as its target T1, Delta-type opioid receptor. The experiment in a line: HTS Image-Based Screen for Agonists of the DOR Receptor. [Related pubchem assays (depositor defined):AID1777, AID1786, AID2133]. The format is functional.
For experiment [3], the target named is T1, Delta-type opioid receptor. The experiment in a line: delta opioid receptor blockers – image-based, SAR follow-up (AID 2357). The format is functional.
Experiment [4] addresses T2, Mu-type opioid receptor (Homo sapiens, UniProt P35372). The experiment in a line: mu opioid receptor blockers – image-based, SAR follow-up (AID 2420).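 Also: compounds added before stimulation of receptor with agonist DAMGO.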 The format is functional.
The target of the next experiment is Beta-galactosidase (Escherichia coli, UniProt Q8VNN2). The format is functional.
Beta-galactosidase, sequence (Q8VNN2 whole entry): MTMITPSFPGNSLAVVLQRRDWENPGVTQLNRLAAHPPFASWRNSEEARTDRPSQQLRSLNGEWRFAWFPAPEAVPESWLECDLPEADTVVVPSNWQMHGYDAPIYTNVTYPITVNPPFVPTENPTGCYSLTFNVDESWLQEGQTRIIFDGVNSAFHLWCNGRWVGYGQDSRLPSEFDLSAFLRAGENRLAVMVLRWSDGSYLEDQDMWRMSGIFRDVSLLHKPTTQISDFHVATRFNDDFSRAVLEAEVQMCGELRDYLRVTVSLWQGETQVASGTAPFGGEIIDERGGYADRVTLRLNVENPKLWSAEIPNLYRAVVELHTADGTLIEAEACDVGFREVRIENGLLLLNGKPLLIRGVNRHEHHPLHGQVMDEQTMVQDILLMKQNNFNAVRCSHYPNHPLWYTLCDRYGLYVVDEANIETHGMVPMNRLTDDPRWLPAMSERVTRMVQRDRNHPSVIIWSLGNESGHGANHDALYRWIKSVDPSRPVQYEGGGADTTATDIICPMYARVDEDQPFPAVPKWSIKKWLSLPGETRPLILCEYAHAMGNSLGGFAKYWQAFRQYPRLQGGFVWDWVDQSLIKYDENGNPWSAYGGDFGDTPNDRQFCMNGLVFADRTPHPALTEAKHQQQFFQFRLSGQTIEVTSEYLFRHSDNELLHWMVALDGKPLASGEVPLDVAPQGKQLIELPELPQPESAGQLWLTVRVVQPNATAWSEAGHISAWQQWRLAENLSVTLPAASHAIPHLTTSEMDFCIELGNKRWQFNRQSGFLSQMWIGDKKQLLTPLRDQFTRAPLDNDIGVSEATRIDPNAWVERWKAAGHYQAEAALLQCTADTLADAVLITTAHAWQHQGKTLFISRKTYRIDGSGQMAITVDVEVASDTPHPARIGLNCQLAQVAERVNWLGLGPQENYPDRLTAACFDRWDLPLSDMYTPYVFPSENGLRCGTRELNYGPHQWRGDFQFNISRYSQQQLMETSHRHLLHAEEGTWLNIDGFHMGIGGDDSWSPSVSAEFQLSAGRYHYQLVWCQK
The target of experiment [5] is T1, Delta-type opioid receptor. The experiment in a line: HTS Image-Based Screen for Antagonists of the DOR Receptor. [Related pubchem assays (depositor defined):AID1777, AID1785, AID1786, AID2133]. The format is functional.
For experiment [6], the target named is T1, Delta-type opioid receptor. The experiment in a line: DOR agonists, SAR follow-up, image-based (AID 2370). The format is functional.
Experiment [7] concerns the target T2, Mu-type opioid receptor. The experiment in a line: mu opioid receptor activators, image-based, SAR follow-up (AID 2352). The format is functional.
Experiment [8] addresses T2, Mu-type opioid receptor. The experiment in a line: HTS Image-Based Screen for Agonists of the MOR Receptor. [Related pubchem assays (depositor defined):AID1777, AID1785, AID1786, AID2133]. The format is functional.
Experiment [9] concerns the target T2, Mu-type opioid receptor. The experiment in a line: SAR Analysis of Antagonists of the MOR Receptor using an Image-Based Assay - Set 3. [Related pubchem assays (depositor defined):AID1777, AID1785, AID1786, AID1966, AID2133, AID2136, AID2284, AID2285, AID2420]. The format is functional.
Experiment [10] has as its system HEK293. The experiment in a line: cells. Particulars: Homo sapiens.
Experiment [11] has as its system HEK293. The experiment in a line: cells. To be noted: Homo sapiens. This is another data set of the same source.
Experiment [12] has as its target Disintegrin and metalloproteinase domain-containing protein 17 (Homo sapiens, UniProt P78536). The experiment in a line: inhibition of ADAM17 substrate cleavage – biochemical, quenched FRET substrate, counter-screen for ADAM10 exosite inhibitor project, dose response (AID 743253).
Experiment [13] is described as follows: potency of ADAM10 substrate cleavage blockers – biochemical, QFRET, dose response (AID 743254).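 Also: ADAM10 enzyme with the DM2 quenched FRET peptide as substrate; EDANS fluorescence gain as the protease cuts the substrate; inhibitor potency against ADAM10 proteolytic activity.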
A further experiment relates to Jurkat. The experiment in a line: SAR Analysis of small molecule inhibitors of […] specific antigen receptor-induced NF-kB activation in a Jurkat cell line using a luminescence assay - Set 3. [Related pubchem assays (depositor defined):AID435022, AID435025, AID465]. To be noted: Homo sapiens. The format is functional, cell-based.
For experiment [14], the system named is HEK293. The experiment in a line: NOD2 signaling inhibitors in MDP-stimulated cells, cell-based, uHTS, luminescence (AID 2001). The format is functional. To be noted: Homo sapiens.
Experiment [15] concerns the target Nucleotide-binding oligomerization domain-containing protein 1 (Homo sapiens, UniProt Q9Y239). The experiment in a line: blockers of NOD1 pathway activity – revised, SAR follow-up (AID 2333). The format is functional.
The next experiment addresses Tumor necrosis factor (Homo sapiens, UniProt P01375). The experiment in a line: analog potency on TNFa NF-kB signaling – cell-based, revised, SAR follow-up (AID 2337). The format is functional.
The subject of experiment [16] is HEK293. The experiment in a line: cells. Particulars: Homo sapiens. The source holds these as a separate data set.
Experiment [17] concerns HEK293. The experiment in a line: SAR Analysis of small molecule inhibitors of B-cell specific antigen receptor-induced NF-kB activation in a HEK-293T cell line using a luminescence assay - Set 2. [Related pubchem assays (depositor defined):AID435022, AID435025, AID489021]. To be noted: Homo sapiens. The format is functional, cell-based.
Experiment [18] deals with HEK293. The experiment in a line: cells. To be noted: Homo sapiens. The format is functional, cell-based.
Experiment [19] deals with HEK293. The experiment in a line: cells. The format is functional, cell-based. To be noted: Homo sapiens. This is another data set of the same source.
The target in experiment [20] is Nucleotide-binding oligomerization domain-containing protein 2 (Homo sapiens, UniProt Q9HC29). The experiment in a line: PubChem AID 2334. The format is functional.
Nucleotide-binding oligomerization domain-containing protein 2, sequence (Q9HC29 whole entry, the tested form may be a part): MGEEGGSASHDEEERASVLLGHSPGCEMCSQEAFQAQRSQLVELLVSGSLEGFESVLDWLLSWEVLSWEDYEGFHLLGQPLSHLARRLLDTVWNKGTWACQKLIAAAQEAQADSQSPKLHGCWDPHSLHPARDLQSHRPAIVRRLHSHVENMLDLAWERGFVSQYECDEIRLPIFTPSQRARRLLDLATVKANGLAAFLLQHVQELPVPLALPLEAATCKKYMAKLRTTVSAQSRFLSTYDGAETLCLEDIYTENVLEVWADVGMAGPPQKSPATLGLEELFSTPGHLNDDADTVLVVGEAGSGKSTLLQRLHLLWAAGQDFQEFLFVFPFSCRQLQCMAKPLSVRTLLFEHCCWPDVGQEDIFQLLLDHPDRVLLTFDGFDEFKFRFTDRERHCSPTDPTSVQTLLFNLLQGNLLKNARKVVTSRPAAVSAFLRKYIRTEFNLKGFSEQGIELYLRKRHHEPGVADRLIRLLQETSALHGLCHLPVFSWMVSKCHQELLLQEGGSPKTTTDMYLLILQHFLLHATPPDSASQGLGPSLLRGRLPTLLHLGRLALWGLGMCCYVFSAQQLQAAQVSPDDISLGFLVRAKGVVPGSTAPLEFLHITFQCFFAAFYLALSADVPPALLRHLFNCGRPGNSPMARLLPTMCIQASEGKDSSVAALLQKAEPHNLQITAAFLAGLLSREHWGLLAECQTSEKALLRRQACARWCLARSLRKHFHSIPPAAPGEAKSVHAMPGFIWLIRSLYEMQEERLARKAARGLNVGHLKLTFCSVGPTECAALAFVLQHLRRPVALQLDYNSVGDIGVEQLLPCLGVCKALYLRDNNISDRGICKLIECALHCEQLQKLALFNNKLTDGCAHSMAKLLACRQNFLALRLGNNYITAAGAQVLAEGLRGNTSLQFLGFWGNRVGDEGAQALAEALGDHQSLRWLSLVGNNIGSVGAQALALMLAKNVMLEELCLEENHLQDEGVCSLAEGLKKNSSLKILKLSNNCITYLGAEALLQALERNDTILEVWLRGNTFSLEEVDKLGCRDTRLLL
The nature of experiment [21]: HEK-293T cell viability reduction – luminescence, B-cell screen hits, cytotoxicity control for BCR NF-kB inhibitor project, dose response (AID 489021).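 Also: HEK-293T cells carrying an NF-kB luciferase reporter; cells exposed to compound for about 14 hours before viability readout.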 The format is functional, cell-based.
Experiment [22] has as its target T3, Microphthalmia-associated transcription factor (Homo sapiens, UniProt O75030).
T3 sequence (O75030 whole entry): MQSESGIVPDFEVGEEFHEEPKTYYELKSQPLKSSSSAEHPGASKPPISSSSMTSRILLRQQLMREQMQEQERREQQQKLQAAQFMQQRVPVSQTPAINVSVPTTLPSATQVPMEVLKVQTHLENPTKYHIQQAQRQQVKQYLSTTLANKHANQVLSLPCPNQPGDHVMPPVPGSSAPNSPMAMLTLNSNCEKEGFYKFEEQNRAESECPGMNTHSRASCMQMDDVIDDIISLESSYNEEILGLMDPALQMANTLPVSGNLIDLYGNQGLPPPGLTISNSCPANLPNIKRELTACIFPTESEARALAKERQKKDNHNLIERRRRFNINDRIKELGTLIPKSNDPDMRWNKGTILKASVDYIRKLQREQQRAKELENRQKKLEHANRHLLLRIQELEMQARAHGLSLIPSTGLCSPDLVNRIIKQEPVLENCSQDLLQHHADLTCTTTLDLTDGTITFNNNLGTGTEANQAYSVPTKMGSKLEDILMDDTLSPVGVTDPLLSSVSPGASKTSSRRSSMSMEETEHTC
The experiment in a line: reducers of TRPM1 reporter luminescence, concentration series – cell-based, SK-MEL-5, cherry-picked, set 3, MITF inhibitor project, dose response (AID 493073).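 Also: SK-MEL-5 melanoma cells with luciferase driven by the MITF target TRPM1 promoter.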 The format is functional.

Experiment [23] relates to HEK293. The experiment in a line: HEK293T cell viability loss, resazurin readout – resazurin fluorescence, cytotoxicity control for NF-kB activator project, SAR follow-up (AID 493251). Particulars: Homo sapiens. The format is functional, cell-based.
Experiment [24] has as its system HEK293. The experiment in a line: inhibition of NOD1-driven NF-kB reporter – cell-based, luminescence, uHTS, primary screen (AID 1578). The format is functional. To be noted: Homo sapiens.
Experiment [25] has as its target T4, Alkaline phosphatase, tissue-nonspecific isozyme (Homo sapiens, UniProt P05186).
T4 sequence (P05186 whole entry): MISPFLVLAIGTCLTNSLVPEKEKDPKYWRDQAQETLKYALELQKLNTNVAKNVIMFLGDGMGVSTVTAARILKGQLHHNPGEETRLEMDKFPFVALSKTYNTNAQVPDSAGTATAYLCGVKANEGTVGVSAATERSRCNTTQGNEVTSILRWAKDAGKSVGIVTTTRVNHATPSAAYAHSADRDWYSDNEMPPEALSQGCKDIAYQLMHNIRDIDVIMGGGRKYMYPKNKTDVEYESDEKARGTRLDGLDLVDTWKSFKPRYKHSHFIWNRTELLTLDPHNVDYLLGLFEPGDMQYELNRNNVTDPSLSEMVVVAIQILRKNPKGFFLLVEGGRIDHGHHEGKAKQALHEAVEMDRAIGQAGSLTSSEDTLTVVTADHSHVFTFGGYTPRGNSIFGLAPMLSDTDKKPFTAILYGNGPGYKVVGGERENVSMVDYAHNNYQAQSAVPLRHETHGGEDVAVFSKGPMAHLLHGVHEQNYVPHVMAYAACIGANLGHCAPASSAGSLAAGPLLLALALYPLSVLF
The experiment in a line: TNAP enzyme inhibition by screening hits, dose response, selectivity assay for mouse IAP inhibitor project, biochemical, human TNAP, uHTS hits (AID 488906). The format is functional.

In experiment [26] the target is Intestinal-type alkaline phosphatase (Mus musculus, UniProt P24822). The experiment in a line: PubChem AID 488785. The format is functional.
Intestinal-type alkaline phosphatase (Mus musculus, UniProt P24822), sequence (P24822 whole entry): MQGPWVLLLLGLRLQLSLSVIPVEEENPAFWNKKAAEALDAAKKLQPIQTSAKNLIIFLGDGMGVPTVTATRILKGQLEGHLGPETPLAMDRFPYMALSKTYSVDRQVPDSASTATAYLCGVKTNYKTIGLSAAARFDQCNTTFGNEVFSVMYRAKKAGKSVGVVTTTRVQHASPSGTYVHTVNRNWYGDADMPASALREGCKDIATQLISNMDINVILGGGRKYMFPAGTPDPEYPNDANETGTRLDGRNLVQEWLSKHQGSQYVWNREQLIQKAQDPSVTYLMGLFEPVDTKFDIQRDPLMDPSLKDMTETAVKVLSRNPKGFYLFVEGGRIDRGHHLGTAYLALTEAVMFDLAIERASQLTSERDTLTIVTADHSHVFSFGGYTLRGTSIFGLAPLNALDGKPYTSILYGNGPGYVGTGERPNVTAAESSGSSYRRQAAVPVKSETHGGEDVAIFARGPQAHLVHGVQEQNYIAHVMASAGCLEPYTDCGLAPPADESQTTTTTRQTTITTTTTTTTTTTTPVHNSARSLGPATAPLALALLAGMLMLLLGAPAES
The target in experiment [27] is T5, Long-chain-fatty-acid--AMP ligase FadD28 (Mycobacterium tuberculosis, UniProt P9WQ59).
T5 sequence (P9WQ59 whole entry): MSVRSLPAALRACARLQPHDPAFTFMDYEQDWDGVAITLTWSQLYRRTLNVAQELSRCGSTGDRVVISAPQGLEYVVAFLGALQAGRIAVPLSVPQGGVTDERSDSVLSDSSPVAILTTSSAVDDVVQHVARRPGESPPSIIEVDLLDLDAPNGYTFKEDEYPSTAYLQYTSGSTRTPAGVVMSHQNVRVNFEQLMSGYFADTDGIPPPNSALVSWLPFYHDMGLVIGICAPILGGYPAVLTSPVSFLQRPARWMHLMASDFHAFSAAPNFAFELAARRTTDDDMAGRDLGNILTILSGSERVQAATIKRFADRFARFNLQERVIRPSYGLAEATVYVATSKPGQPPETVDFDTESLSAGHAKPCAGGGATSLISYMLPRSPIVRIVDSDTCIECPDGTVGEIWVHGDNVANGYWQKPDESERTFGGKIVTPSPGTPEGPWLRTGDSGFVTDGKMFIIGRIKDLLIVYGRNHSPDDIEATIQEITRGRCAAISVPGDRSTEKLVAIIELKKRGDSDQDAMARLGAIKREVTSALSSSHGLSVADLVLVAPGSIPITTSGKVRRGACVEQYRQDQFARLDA
The experiment in a line: Fluorescence polarization aasay to screen for inhibitors that compete for the binding of FadD28 to a bisubstrate Measured in Biochemical System Using Plate Reader - 2147-01_Inhibitor_Dose_CherryPick_Activity. The format is functional, Mycobacterium tuberculosis H37Rv. (In general: In fluorescence polarisation assays a small probe gives low polarisation when free and higher when bound to something large.)

Experiment [28] has as its target Intestinal-type alkaline phosphatase (Homo sapiens, UniProt P09923). The experiment in a line: inhibition of human intestinal alkaline phosphatase – biochemical, dose response (AID 488876). The format is functional.
The target of experiment [29] is Beta-adrenergic receptor kinase 1 (Homo sapiens, UniProt P25098). The experiment in a line: blockers of aptamer binding to GRK2 – biochemical, flow cytometry beads, FAM-aptamer, powder set 1, dose response (AID 588720). (In general: Flow cytometry measures light scatter and fluorescence of single cells or particles in a stream.)

Molecules are shown by their SMILES. Calls of active or inactive are those of the source.

A word on the IC50: it is the concentration that inhibits the measured activity by half. One may read the EC50 as the concentration at which the effect is half-maximal. As usually defined, the AC50 is the midpoint of the concentration-response curve, whichever way the signal moves.

T2 sequence (P35372 whole entry): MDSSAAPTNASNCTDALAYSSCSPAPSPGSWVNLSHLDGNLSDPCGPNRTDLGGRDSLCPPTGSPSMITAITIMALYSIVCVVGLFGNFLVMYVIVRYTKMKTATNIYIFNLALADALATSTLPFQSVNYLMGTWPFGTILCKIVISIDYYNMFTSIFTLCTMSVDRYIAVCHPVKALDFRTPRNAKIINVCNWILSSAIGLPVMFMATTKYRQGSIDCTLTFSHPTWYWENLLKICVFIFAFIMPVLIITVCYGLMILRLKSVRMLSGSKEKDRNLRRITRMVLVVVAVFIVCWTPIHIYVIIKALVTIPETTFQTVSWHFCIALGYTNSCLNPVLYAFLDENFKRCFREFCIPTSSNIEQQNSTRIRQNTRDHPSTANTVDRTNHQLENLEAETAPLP
T1 sequence (P41143 whole entry): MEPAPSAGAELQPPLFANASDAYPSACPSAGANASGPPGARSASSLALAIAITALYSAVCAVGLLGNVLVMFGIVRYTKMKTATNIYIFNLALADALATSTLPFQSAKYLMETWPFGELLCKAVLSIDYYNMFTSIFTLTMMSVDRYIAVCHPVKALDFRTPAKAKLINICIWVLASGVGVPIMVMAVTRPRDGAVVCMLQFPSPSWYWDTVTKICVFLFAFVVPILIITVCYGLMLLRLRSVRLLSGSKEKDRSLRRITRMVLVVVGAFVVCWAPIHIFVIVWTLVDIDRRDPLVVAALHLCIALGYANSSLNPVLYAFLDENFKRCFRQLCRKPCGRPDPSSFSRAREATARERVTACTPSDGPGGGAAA
Disintegrin and metalloproteinase domain-containing protein 17, sequence (P78536 whole entry, the tested form may be a part): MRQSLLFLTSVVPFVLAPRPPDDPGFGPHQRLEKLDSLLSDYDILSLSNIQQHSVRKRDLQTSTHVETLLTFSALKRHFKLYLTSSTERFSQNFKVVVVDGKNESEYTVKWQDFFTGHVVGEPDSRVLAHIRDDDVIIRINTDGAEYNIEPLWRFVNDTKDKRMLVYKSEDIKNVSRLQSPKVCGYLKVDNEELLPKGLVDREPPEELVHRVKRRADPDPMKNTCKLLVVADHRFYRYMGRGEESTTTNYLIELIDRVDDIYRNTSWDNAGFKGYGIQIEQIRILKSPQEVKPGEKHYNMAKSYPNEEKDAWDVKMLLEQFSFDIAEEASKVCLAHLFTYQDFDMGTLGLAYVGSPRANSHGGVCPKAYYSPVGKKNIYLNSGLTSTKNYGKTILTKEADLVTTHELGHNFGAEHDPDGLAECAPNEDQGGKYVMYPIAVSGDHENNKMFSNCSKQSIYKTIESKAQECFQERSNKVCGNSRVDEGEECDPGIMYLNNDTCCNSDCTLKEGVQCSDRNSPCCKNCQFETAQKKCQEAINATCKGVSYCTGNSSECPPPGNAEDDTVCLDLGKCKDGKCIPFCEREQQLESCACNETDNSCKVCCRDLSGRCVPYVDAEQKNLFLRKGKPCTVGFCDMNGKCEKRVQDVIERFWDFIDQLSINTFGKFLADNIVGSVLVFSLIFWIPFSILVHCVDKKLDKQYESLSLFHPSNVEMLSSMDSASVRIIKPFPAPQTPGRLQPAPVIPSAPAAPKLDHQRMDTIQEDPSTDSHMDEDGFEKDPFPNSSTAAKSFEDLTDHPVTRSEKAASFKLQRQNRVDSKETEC
Tumor necrosis factor, sequence (P01375 whole entry): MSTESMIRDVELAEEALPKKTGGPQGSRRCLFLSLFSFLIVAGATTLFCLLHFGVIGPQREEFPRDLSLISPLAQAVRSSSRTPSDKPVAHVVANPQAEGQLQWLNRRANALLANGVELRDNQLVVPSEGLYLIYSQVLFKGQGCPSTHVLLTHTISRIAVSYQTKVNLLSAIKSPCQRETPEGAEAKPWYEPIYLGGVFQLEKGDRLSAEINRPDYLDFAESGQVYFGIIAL
Intestinal-type alkaline phosphatase (Homo sapiens, UniProt P09923), sequence (P09923 whole entry): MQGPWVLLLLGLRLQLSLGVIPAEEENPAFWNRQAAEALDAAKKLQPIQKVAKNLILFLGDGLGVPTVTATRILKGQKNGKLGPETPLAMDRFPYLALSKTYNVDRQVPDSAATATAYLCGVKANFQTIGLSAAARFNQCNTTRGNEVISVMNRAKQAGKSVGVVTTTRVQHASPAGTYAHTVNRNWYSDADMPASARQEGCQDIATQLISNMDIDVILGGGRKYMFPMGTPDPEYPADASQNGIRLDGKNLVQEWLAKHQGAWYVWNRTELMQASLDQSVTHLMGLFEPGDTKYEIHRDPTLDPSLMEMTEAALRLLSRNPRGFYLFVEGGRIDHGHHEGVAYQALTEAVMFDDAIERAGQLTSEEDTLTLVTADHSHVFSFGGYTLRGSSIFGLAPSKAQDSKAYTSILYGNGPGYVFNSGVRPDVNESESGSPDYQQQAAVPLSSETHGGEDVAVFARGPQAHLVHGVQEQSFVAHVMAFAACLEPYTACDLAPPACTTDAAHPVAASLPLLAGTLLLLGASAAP

Consider `Cc1ccc(S(=O)(=O)NCc2ccc(C(=O)NCCN(Cc3ccccc3)C(C)C)cc2)cc1`, for which the IC50 in [1] was > 32 µM (inactive); in experiment [3], > 32 µM (inactive); at Mu-type opioid receptor [4], > 32 µM (inactive); in experiment [5] it was > 32 µM (inactive); at Mu-type opioid receptor [9] it was 14 µM (inactive). The EC50 in experiment [2] was > 32 µM (inactive); on Beta-galactosidase, > 31.5 µM (inactive); in [6] it was > 32 µM (inactive); at Mu-type opioid receptor [7] it was > 32 µM (inactive); at Mu-type opioid receptor [8], > 32 µM (inactive).
Take `O=S(=O)(NCC(Nc1ccc(Cl)cc1)c1ccccc1)c1ccc(Cl)cc1` (configuration not stated): the EC50 in the experiment with HEK293 [10] and in the experiment with HEK293 [11] was > 59.7 µM (inactive) throughout. In addition, the IC50 was > 69.5 µM (inactive) in [12] and 11.7 µM (inactive) in experiment [13].
Consider `CC(C)(C)c1ccc(-c2noc(CCC(=O)NCc3ccco3)n2)cc1`, for which the IC50 was > 80 µM (inactive) in the experiment with Jurkat; > 20 µM (inactive) in the experiment on HEK293 [14]; 3.68 µM (active) in experiment [15]; 6.76 µM (active) on Tumor necrosis factor; > 20 µM (inactive) in the experiment with HEK293 [16]; 2.39 µM (active) in the experiment on HEK293 [17]. Further, the IC50 in the experiment with HEK293 [18] was > 20 µM (inactive); in the experiment with HEK293 [19], > 20 µM (inactive); in experiment [20] it was 2.16 µM (active); in experiment [21], > 80 µM (inactive); in the experiment with HEK293 [23], 49.2 µM (inactive). Moreover, the AC50 in experiment [22] is 0.122 µM (active). Also, the EC50 in the experiment with HEK293 [24] was 8.42 µM (active).
As for `O=C(NN1C(=O)/C(=C/c2ccc(O)c(O)c2)SC1=S)c1ccccc1`, the IC50 is 20 µM (active) in experiment [25], 1.28 µM (active) in experiment [26] and > 100 µM (inactive) in experiment [28]. In addition, the AC50 in experiment [27] was 1.41 µM (active).
For the molecule `Cc1cccc(N2CCN(C(=O)CCS(=O)(=O)c3ccc(Br)cc3)CC2C)c1` (configuration not stated), in experiment [29], the EC50 was 2 µM (active).

Values taken from ChEMBL document CHEMBL1201862, “PubChem BioAssay data set” (2004).
